Our source for the Fold change values is paper PMC8458281, “Computational modeling and experimental validation of the EPI-X4/CXCR4 complex allows rational design of small peptide antagonists” (Communications Biology, 2021).

One test has as its system CXCR4 D97E + V112A. Put plainly: 12G5 antibody competition, 293T cells transfected with CXCR4 D97E + V112A. Format: binding, human. The conditions noted are these: IC50 on CXCR4 D97E + V112A relative to wt. The procedure:
(§1) Fig. 4 The interactions of EPI-X4 and the EPI-X4 derivatives WSC02 and JM#21 with point-mutated CXCR4 were assessed by an antibody competition assay. Amino acid substitutions were introduced in the sequence of CXCR4 by site-directed mutagenesis, cloned into an IRES-eGFP expression vector, and transfected into 293 T cells. Afterward, cells were incubated with serially diluted EPI-X4 (a, b), WSC02 (c, d), or JM#21 (e, f) in presence of a constant concentration of CXCR4 specific antibody (clone 12G5). After 2 h, bound antibody was analyzed by flow cytometry. a, c, e) Representative dose-dependent replacement of 12G5 antibody by peptides. b, d, f) IC50 values were calculated by nonlinear regression. Shown are data derived from at least three individual experiments ± SEM. IC50 values were set to 1000 µM (EPI-X4 and WSC02) or 100 µM (JM#21) if the value exceeds the maximally used concentration. *p ≤ 0.05, ***p ≤ 0.001 (one-way ANOVA for comparison with wt). For IC50 values see Table 1. For all binding curves see also Fig. S8.
(§2) Mutated CXCR4 constructs were transfected into 293 T cells that have a very low endogenous expression level of wild-type CXCR4. Transfected cells were then analyzed for CXCR4 surface expression (Fig. S5a) and EPI-X4 binding using a flow cytometry-based antibody competition assay (Fig. S5b, c)[33]. […]

The next test relates to CXCR4 D262A. Put plainly: 12G5 antibody competition, 293T cells transfected with CXCR4 D262A. Format: binding, human. To be noted: IC50 on CXCR4 D262A relative to wt. On the procedure:
as §1, §2

Consider “IVRWSKKVPCVS [WSC02, first-generation C-terminally truncated 12-mer derivative of EPI-X4 with four substitutions]”, for which the Fold change in the test on CXCR4 D97E + V112A is 1.5; in the test on CXCR4 D262A it was 0.4.
